# Patent US20130090320A1, “METHOD OF TREATING PROSTATE CANCER” (NIIKI PHARMA INC., priority 2010, published 2013)
# Experiments:
# LNCaP cell line [1] = assay: Docetaxel IC50 in LNCaP from published literature; assay type: cell-based, human; conditions: ratio of literature docetaxel IC50 in LNCaP to IC50 in PC-3
# Protocol: In addition, the IC50 values of docetaxel in the LNCaP and PC-3 cell lines were obtained from published literature. The ratios of IC50 values of sodium trans-[tetrachlorobis(1H-indazole)ruthenate(III)] in a cell line sensitive to one of the other drugs and a cell line insensitive to the same drug were calculated. The results are shown in Table 1 below (“Test Drug” in the table denotes sodium trans-[tetrachlorobis(1H-indazole)ruthenate(III)]). […] See Domingo-Domenech et al., Clin. Cancer Res., 12(18):5578-5586 (2006); Blagosklonny et al., J. Urol. 163(3):1022-6 (2000). As such, sodium trans-[tetrachlorobis(1H-indazole)ruthenate(III)] is potentially effective in treating prostate cancer resistant to such other drugs.
# LNCaP cell line [2] = conditions: Domingo-Domenech et al., Clin. Cancer Res. 2006; cited from earlier work
# PC-3 cell line = conditions: Domingo-Domenech et al., Clin. Cancer Res. 2006; cited from earlier work
# [3] = test system: LNCaP clone FGC (prostate carcinoma)
# Protocol: (§1) To test the activities of sodium trans-[tetrachlorobis(1H-indazole)ruthenate(III)], ATCC's MTT Cell Proliferation Assay® was performed using human prostate cancer cell lines LNCaP clone FGC (prostate carcinoma) and PC-3 (Prostate carcinoma). Stock cultures were allowed to grow to 70-80% confluence for this study. The anti-proliferative activity of sodium trans-[tetrachlorobis(1H-indazole)[…]], against the indicated cell lines was evaluated in vitro using the ATCC's MTT Cell Proliferation Assay (Catalog No. 30-1010K). LNCaP clone FGC plates were seeded with 4,000 cells/well, and the cells were grown in RPMI 1640 medium containing 1% HEPES (1M solution), 1% sodium pyruvate, 1% glucose (45% solution), 10% heat-inactivated FBS and 1% penicillin/strep/glutamine. PC-3 plates were seeded with 6,000 cells/well, and the cells were grown in Ham's F12 medium containing 10% heat-inactivated FBS, and 1% penicillin/strep/glutamine. Cultures were maintained in a 37° C. humidified 5% CO2/95% air atmosphere. The cells were treated with sodium trans-[tetrachlorobis(1H-indazole)ruthenate(III)] at 1,000 μM, or a series of 4× dilutions thereof (250 μM, 62.5 μM, etc.). 100 μl of medium was removed from each well at 72 hours post-treatment and 10 μl MTT reagent was added to each well. […] The plates were left overnight at room temperature in the dark and was read on a plate reader using SoftMax® Pro (version 5.2, Molecular Devices).
# (§2) The absorbance data was analyzed as follows: Absorbance values were converted to Percent of Control and plotted against test agent concentrations for IC50 calculations using SoftMax® Pro (version 5.2, Molecular Devices). […] Percent of Control values were calculated by dividing the absorbance values for each test well by the No Drug Control average (column 11 values; cells+vehicle control) and multiplying by 100. Plots of Compound Concentration versus Percent of Control were analyzed using the 4-parameter equation to obtain IC50 values and other parameters that describe the sigmoidal dose response curve. […]
# [4] = test system: PC-3 (Prostate carcinoma); conditions: PC-3 cell line, MTT, 72 hours post-treatment
# Protocol: as §1, §2
IC50 Ratio (LNCaP/PC-3) (LNCaP cell line [1]),Compound,IC50 (LNCaP cell line [2]) [nM],IC50 (PC-3 cell line) [nM],"IC50 ([3]; LNCaP cell line, MTT, 72 hours post-treatment) [µM]",IC50 Ratio (LNCaP/PC-3) ([3]; ratio of Test Drug IC50 in LNCaP to IC50 in PC-3),IC50 [4] [µM]
12-20,"CC(=O)O[C@@]12CO[C@@H]1C[C@H](O)[C@@]1(C)C(=O)[C@H](O)C3=C(C)[C@@H](OC(=O)[C@H](O)[C@@H](NC(=O)OC(C)(C)C)c4ccccc4)C[C@@](O)([C@@H](OC(=O)c4ccccc4)[C@H]21)C3(C)C [Docetaxel, docetaxel]",50 to 60,2.5 to 5,,,
,[Cl][Ru-]([Cl])([Cl])[Cl].[Na+].c1ccc2[nH]ncc2c1.c1ccc2[nH]ncc2c1 [sodium trans-[tetrachlorobis(1H-indazole)ruthenate(III)]],,,17.3,0.41,41.8
